Several values for one entry are separate records, joined by “and”; a condition that tells them apart may be missing. Identical values can stand only once. Like-named read-outs stand apart in the source and are kept apart here.
Assays:
[1] = molecular target: T1, HIV-1 RT (Human immunodeficiency virus type 1 group M subtype B, UniProt P04585); experiment: HIV-1 RT enzymatic (combination) inhibition assay, steady state, activated calf thymus DNA; type: biochemical
T1 construct: Wild-type HIV-1 RT p66/p51 heterodimers; 6-His (N); made in house

[2] = human, in vivo; cited from earlier work
[3] = molecular target: T2, HIV-1 RT and ddNTP-terminated DNA primer/template (Human immunodeficiency virus type 1 group M subtype B, UniProt P04585); experiment: DEC formation assay (gel shift); type: binding
T2 construct: Wild-type HIV-1 RT p66/p51 heterodimers; 6-His (N); made in house
Source text: The dead-end complex (DEC) refers to a salt-stable complex formed by HIV-1 RT/ddNMP-terminated DNA primer-template bound to the next dNTP (or ddNTP) that is resistant to being competed apart with excess template. When DEC forms, HIV-1 RT and the DNA primer-template are "trapped" in a state where the forward reaction (polymerization), backward reaction (terminal ddNMP-excision), or enzyme-DNA dissociation cannot occur. We investigated the DEC formation using TFV-terminated DNA/RT/FTC-TP and FTC-MP-terminated DNA/RT/TFV-DP to test the hypothesis that the incoming NRTI might act as the next nucleotide to the chain-terminated primer and form a DEC, thus stabilizing the pre-existing chain-termination. […] For these studies, formation of DEC was determined by three kinetic constants including the dissociation constant (Kd), the maximum percentage of DNA primer-template forming a tight binding RT-DNA complex (Bmax), and the ratio of Bmax/Kd which reflects the efficiency of DEC formation. Furthermore, two sets of DNA primer/templates ([…] and D26/D50) were used to address whether the observation was sequence-dependent.
DNA primers D19, D25, and D26 were 5'-end labeled with T4 polynucleotide kinase (New England Biolabs, Ipswich, MA) and [γ-^32P]ATP as previously described. […] The annealed primer/templates were analyzed by non-denaturing polyacrylamide gel (4–20% TBE) electrophoresis to ensure that the proper annealing had taken place.
The ability of HIV-1 RT to form a stable complex with NRTI-terminated primer/template in the presence of dNTP, ddNTP or NNRTI was assessed as previously described with modification. Two sets of primer/templates were tested using D19/D36A (D19/D36C) and D25/D50 (D26/D50). Labeled primer/template was chain-terminated by incubating a mixture containing 50 mM Tris-HCl (pH 7.8), 60 mM KCl, 5 mM MgCl2, 5 mM DTT, 300 μg/mL bovine serum albumin, 4.2 (v/v) % glycerol, 5 nM [5'-^32P]-labeled primer/template, 0.5 μM of ddATP or TFV-DP (for D19/D36A or D25/D50) or 0.5 μM of ddCTP or FTC-TP (for D19/D36C or D26/D50), and 200 nM HIV-1 RT for 5 min at 37°C and then placed on ice. […] Free dNTP, ddNTP, or EFV was added into the mixture and the mixture was incubated for 15 min at 25°C. At the end of the incubation, the mixture was placed on ice and mixed with 100 mM KCl and 1 A260 unit/mL (for D19/D36A and D19/D36C) or 5 A260 unit/mL (for D25/D50 and D26/D50) poly(rA).poly(dT)12–18. […] The gel was exposed to a storage phosphor screen and DEC formation was quantified using GE Storm 820 PhosphorImager and ImageQuant TL software (GE Healthcare, Piscataway, NJ).
The DEC formation was analyzed by plotting the fraction of the primer/template detected as a function of dNTP, ddNTP, or EFV concentration. […] Data were fitted by nonlinear regression to simple ligand binding equation: y = (Bmax × [ligand])/(Kd + [ligand]) using SigmaPlot 9.0 (Systat Software, Inc., San Jose, CA), where the ligand is the free dNTP, ddNTP, or EFV concentration, and y corresponds to the % of primer/template in DEC complex. The kinetic constants Kd represents the apparent dissociation constant of a ligand and Bmax is the maximum % of DEC complex formation.

[4] = test system: HIV-1 strain xxLAI; experiment: microbe, parasite or virus in culture; type: cell-based; conditions: Human immunodeficiency virus 1, MT2
Protocol: The infected cells were incubated for 5 days at 37°C in 5% CO2. Antiviral activity was measured by determining the HIV-1 cytopathic effect by using the vital dye XTT (2,3-bis(2-methoxy-4-nitro-5-sulphophenyl)-2H-tetrazolium-5-carboxanilide) based colorimetric assay [61].
For the median-effect analysis, the compounds were combined at a 1:1 ratio based on their EC50. Six to eight concentrations of each single drug, two-drug combinations, and three-drug combinations were assayed in at least three independent experiments with quadruplicate wells for each experiment. The triple drug combination of TFV+FTC+EFV was studied by the median-effect analysis only. […] For the MacSynergy analysis, combinations of TFV+FTC, TFV+EFV, and FTC+EFV were tested in a checkerboard fashion in 96-well plates with the starting concentration for each compound fixed at three-fold to four-fold above the EC50 value. For the isobologram analysis, combinations of TFV+FTC, TFV+EFV, and FTC+EFV were tested in a checkerboard fashion with the starting concentration for each compound fixed at three-fold to four-fold above the EC50 value.
The degrees of synergy and antagonism were determined using CalcuSyn software (version 2.0, Biosoft, Cambridge, UK) which is based on median-effect principle by Chou and Talalay [62]. […] The IC50 value is calculated from the y-intercept (-m * log IC50), where m is the slope of the curve. […]
The MacSynergy II program (version 1.0, Ann Arbor, MI) calculates a theoretical additive value for each drug combination based on the values generated by the drugs alone using the Bliss Independence model [42]. […] A synergy volume is calculated by adding all of the positive values for each drug combination. […]
In our cell culture study, the score of synergy/antagonism was calculated from a set of 5 replicate parallel measurements and more than 3 sets of such experiments were conducted to test the reproducibility of the results. […]
Fractional inhibitory concentrations are calculated by dividing the EC50 of drug 1 with a fixed overlay of drug 2 by the EC50 of drug 1 alone (the x-coordinate).

[5] = in vivo; cited from earlier work
[6] = molecular target: T2, HIV-1 RT and ddNTP-terminated DNA primer/template; design: method as in PMID 9153415, PMID 17517852; conditions: TFV-terminated DNA+RT ref 51,55; read-out: Kd, reported values for DEC of TFV-terminated DNA+RT+dCTP; cited from earlier work
[7] = [α-32P]-dATP incorporation as marker
[8] = [α-32P]-dCTP incorporation as marker
[9] = TFV-terminated DNA 26/50-mer + HIV-1 RT, example experiment of Fig. 5
[10] = TFV-terminated DNA 26/50-mer + HIV-1 RT, example experiment of Fig. 5, read-out: Kd (curve fit of Fig. 5)
[11] = ligand added to TFV-terminated DNA D20/D36 + HIV-1 RT
[12] = ligand added to TFV-terminated DNA D20/D36 + HIV-1 RT, read-out: Kd
[13] = ligand added to TFV-terminated DNA D26/D50 + HIV-1 RT
[14] = ligand added to ddAMP-terminated DNA D20/D36 + HIV-1 RT
[15] = ligand added to ddAMP-terminated DNA D20/D36 + HIV-1 RT, read-out: Kd
[16] = ligand added to ddAMP-terminated DNA D26/D50 + HIV-1 RT
[17] = ligand added to ddCMP-terminated DNA D20/D36 + HIV-1 RT
[18] = ligand added to ddCMP-terminated DNA D27/D50 + HIV-1 RT

Structure (SMILES): Nc1nc(=O)n([C@@H]2CS[C@H](COP(=O)(O)OP(=O)(O)OP(=O)(O)O)O2)cc1F [FTC-TP, FTC triphosphate]
- IC50 [1, 7]: 5000 ± 3200 nM
- IC50 [1, 8]: 2400 ± 800 nM
- concentration in patients' peripheral blood mononuclear cells (PBMC) [2]: 5 µM
- Bmax (curve fit of Fig. 5) [3, 9]: 50.4 ± 1.1%
- Kd [3, 10]: 52.6 ± 3.4 µM
- fold more efficient DEC formation than dCTP ([3]; TFV-terminated DNA+RT, two sequence contexts: equal to dCTP in one, this fold in the other): 3.9 fold and 4 fold
- fold less efficient DEC formation than with dCTP ([3]; ddAMP-terminated DNA+RT): 10 fold
- Bmax [3, 11]: 17.7 ± 3.9%
- Kd [3, 12]: 250 ± 11 µM
- Bmax [3, 13]: 50.0 ± 5.0%
- Bmax [3, 14]: 28.1 ± 4.7%
- Kd [3, 15]: 171 ± 28 µM
- Bmax [3, 16]: 60.2 ± 7.2%

Structure (SMILES): C[C@@H](Cn1cnc2c(N)ncnc21)OCP(=O)(O)OP(=O)(O)OP(=O)(O)O [TFV-DP, TFV diphosphate]
- IC50 [1, 7]: 530 ± 80 nM
- IC50 [1, 8]: 820 ± 230 nM
- concentration in patients' peripheral blood mononuclear cells (PBMC) [2]: 0.5 µM
- Bmax [3, 17]: 15.3 ± 2.7%
- Bmax [3, 18]: 55 ± 2%

Structure (SMILES): O=C1Nc2ccc(Cl)cc2[C@@](C#CC2CC2)(C(F)(F)F)O1 [EFV, efavirenz]
- EC50 [4]: 5.6 nM
- steady-state plasma EFV concentration [5]: 5 µM

Structure (SMILES): C[C@H](Cn1cnc2c(N)ncnc21)OCP(=O)(O)O [TFV, tenofovir]
- EC50 [4]: 13000 nM

Structure (SMILES): Nc1ccn([C@H]2C[C@H](O)[C@@H](COP(=O)(O)OP(=O)(O)OP(=O)(O)O)O2)c(=O)n1 [dCTP]
- Kd [6]: 1000 to 5000 nM
- Bmax (curve fit of Fig. 5) [3, 9]: 49.2 ± 2.7%
- Kd [3, 10]: 185 ± 28 µM
- Bmax [3, 11]: 18.5 ± 6.7%
- Kd [3, 12]: 232 ± 12 µM
- Bmax [3, 13]: 50.0 ± 5.5%
- Bmax [3, 14]: 34.2 ± 4.6%
- Kd [3, 15]: 21.5 ± 9.8 µM
- Bmax [3, 16]: 55.8 ± 3.4%

Structure (SMILES): Nc1nc(=O)n([C@@H]2CS[C@H](CO)O2)cc1F [FTC, emtricitabine]
- EC50 [4]: 1300 nM

Structure (SMILES): Nc1ncnc2c1ncn2[C@H]1C[C@H](O)[C@@H](COP(=O)(O)OP(=O)(O)OP(=O)(O)O)O1 [dATP]
- fold more efficient DEC formation than TFV-DP ([3]; ddCMP-terminated DNAs): 24- to 65 fold
- Bmax ([3]; ligand added to FTC-MP-terminated DNA D27/D50 + HIV-1 RT, ND = No DEC formation detected at 2 mM): 45 ± 14%
- Kd ([3]; ligand added to FTC-MP-terminated DNA D27/D50 + HIV-1 RT, ND = No DEC formation detected at 2 mM, read-out: Kd): 862 ± 229 µM
- Bmax [3, 17]: 38.0 ± 4.4%
- Bmax [3, 18]: 60 ± 3%

Reference: publication PMC2693498 (Retrovirology, 2009)
